Data as given in PubChem BioAssay (NCI).
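Grown in 96-well plates, cells were treated for 48 hours with each compound at five concentrations. Insufficient inhibition: endpoint recorded as highest concentration tested. Definition used: TGI = concentration required for complete inhibition of growth.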

Columns and labels:
Experiment in all cases: DTP human tumour cell line panel, 48 h
[1] = tested on: SW-620 colon
[2] = tested on: OVCAR-8 ovarian
[3] = tested on: SK-MEL-2 melanoma
[4] = tested on: ACHN renal
[5] = tested on: A549 NSCLC
[6] = tested on: NCI-H522 lung
[7] = tested on: HCT-15 colon
[8] = tested on: SK-OV-3 ovarian
[9] = tested on: NCI-H460 lung
[10] = tested on: NCI-H23 lung
[11] = tested on: SK-MEL-28 melanoma
[12] = tested on: SN12C renal
[13] = tested on: 786-0 renal
[14] = tested on: HT29 colon
[15] = tested on: T-47D breast
[16] = tested on: M14 melanoma
[17] = tested on: HL-60(TB) leukemia

`O=C(O)C1Cc2ccccc2OC1=O` (configuration not stated) was tested, and the TGI [1] was over 100 µM, the TGI [2] was over 100 µM and the TGI [3] was over 100 µM. The TGI [4] was over 100 µM, the TGI [5] was over 100 µM and the TGI [6] was over 100 µM. The TGI [7] was over 100 µM, the TGI [8] was over 100 µM and the TGI [9] was over 100 µM. It also gave a TGI [10] of over 100 µM, a TGI [11] of over 100 µM and a TGI [12] of over 100 µM. It also gave a TGI [13] of over 100 µM, a TGI [14] of over 100 µM and a TGI [15] of over 100 µM. It also gave a TGI [16] of over 100 µM.

With `Cc1cc(O)c(/C=N/C(=O)NN)c(=O)o1` the TGI [1] was over 100 µM, the TGI [2] was over 100 µM and the TGI [3] was over 100 µM. The TGI [4] was over 100 µM, the TGI [5] was over 100 µM and the TGI [6] was over 100 µM. It also gave a TGI [7] of over 100 µM, a TGI [8] of over 100 µM and a TGI [9] of over 100 µM. For the same molecule, the TGI [10] was over 100 µM, the TGI [11] was over 100 µM and the TGI [12] was over 100 µM. The TGI [13] was over 100 µM and the TGI [16] was over 100 µM.

`CCN(CC)CCNc1ccc2nnn3c4ccc(OC(C)=O)cc4c(=O)c1c23` showed a TGI [1] of 13.6 µM, a TGI [2] of 16.7 µM and a TGI [3] of 30.7 µM. For the same molecule, the TGI [4] was 12.9 µM, the TGI [5] was over 40.6 µM and the TGI [6] was 5.92 µM. It also gave a TGI [7] of 13.6 µM, a TGI [8] of 21 µM and a TGI [9] of 11.5 µM. It also gave a TGI [10] of 18.9 µM, a TGI [11] of 26.3 µM and a TGI [12] of 15.8 µM. The TGI [13] was over 38.1 µM, the TGI [14] was 11.4 µM and the TGI [15] was 31.1 µM. The TGI [16] was 21 µM.

Work on `CCc1c(-c2coc(CC/C(C)=C/c3ccccc3)n2)oc(OC)c(C)c1=O` yielded a TGI [1] of over 44.7 µM, a TGI [2] of over 100 µM and a TGI [3] of over 100 µM. The TGI [4] was over 71.4 µM, the TGI [5] was over 100 µM and the TGI [6] was 15.3 µM. The TGI [7] was over 55.5 µM, the TGI [8] was over 100 µM and the TGI [9] was over 100 µM. It also gave a TGI [10] of over 95.4 µM, a TGI [11] of over 100 µM and a TGI [12] of over 62.2 µM. It also gave a TGI [17] of 97.9 µM, a TGI [13] of over 55.4 µM and a TGI [14] of over 31.6 µM. It also gave a TGI [16] of over 61.4 µM.

`C=CC[C@@]1(C#N)C[C@H](C[C@]2(C#N)C[C@H](CCl)OC(C)(C)O2)OC(C)(C)O1` was tested, and the TGI [1] was over 100 µM, the TGI [2] was over 100 µM and the TGI [3] was over 100 µM. The TGI [4] was over 100 µM, the TGI [5] was over 100 µM and the TGI [6] was over 100 µM. For the same molecule, the TGI [7] was over 100 µM, the TGI [8] was over 100 µM and the TGI [9] was over 100 µM. It also gave a TGI [10] of over 100 µM, a TGI [11] of over 100 µM and a TGI [12] of over 100 µM. For the same molecule, the TGI [17] was over 100 µM, the TGI [13] was over 100 µM and the TGI [14] was over 100 µM. It also gave a TGI [16] of over 100 µM.

With `[N-]=[N+]=NC(c1cn(C2CC(O)C(CO)O2)c(=O)[nH]c1=O)C(I)I` (configuration not stated) the TGI [1] was over 100 µM, the TGI [2] was over 100 µM and the TGI [3] was over 100 µM. It also gave a TGI [4] of over 100 µM, a TGI [5] of over 100 µM and a TGI [8] of over 100 µM. For the same molecule, the TGI [9] was over 100 µM, the TGI [10] was over 100 µM and the TGI [11] was over 100 µM. For the same molecule, the TGI [12] was over 100 µM, the TGI [17] was over 100 µM and the TGI [13] was over 100 µM. It also gave a TGI [14] of over 100 µM and a TGI [16] of over 100 µM.
